Data taken from ChEMBL document CHEMBL5500373, “Lead optimization based design, synthesis, and pharmacological evaluation of quinazoline derivatives as multi-targeting agents for Alzheimer's disease treatment” (Eur J Med Chem, 2024).
The source made the active and inactive calls. The rule behind the calls is not given here.

Columns and labels:
[1] = Acute toxicity in female Wistar rat assessed as histopathological changes in kidneys at 100 to 500 mg/kg, po measured after 14 days; format: organism-based; conditions: in vivo, 336 h, dose 100-500 mg/kg, time 14 day
Cholinesterase = Cholinesterase (Homo sapiens, UniProt P06276); assay: Inhibition of human serum BChE using butyrylthiocholine iodide as substrate preincubated for 30 mins followed by substrate addition and measured after 30 mins by DTNB based Ellman's method
Sequence of Cholinesterase (P06276 whole entry, the tested form may be a part): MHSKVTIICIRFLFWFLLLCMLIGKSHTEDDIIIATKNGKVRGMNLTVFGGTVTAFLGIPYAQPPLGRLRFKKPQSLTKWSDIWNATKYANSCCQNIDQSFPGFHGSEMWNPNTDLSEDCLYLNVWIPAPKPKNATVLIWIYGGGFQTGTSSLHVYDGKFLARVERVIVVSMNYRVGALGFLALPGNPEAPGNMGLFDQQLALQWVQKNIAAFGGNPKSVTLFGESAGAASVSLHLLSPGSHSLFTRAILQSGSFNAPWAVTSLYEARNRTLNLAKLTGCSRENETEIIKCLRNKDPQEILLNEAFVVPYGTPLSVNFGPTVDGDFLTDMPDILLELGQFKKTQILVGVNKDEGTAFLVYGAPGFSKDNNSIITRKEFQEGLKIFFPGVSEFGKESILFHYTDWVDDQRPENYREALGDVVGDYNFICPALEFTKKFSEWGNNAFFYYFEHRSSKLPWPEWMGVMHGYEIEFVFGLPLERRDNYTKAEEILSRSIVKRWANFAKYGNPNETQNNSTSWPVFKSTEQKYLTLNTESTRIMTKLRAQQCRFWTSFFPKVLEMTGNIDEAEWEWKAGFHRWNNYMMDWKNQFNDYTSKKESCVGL

Rattus norvegicus [2] = assay: (§1) Reversal of amyloid beta (1 to 42 residues) induced cognitive impairment in female Wistar rat assessed as increase in neuronal arrangements in brain at 20 mg/kg, po pretreated with amyloid beta for 7 days followed by compound administration and measured after 5 days by Nissls staining based light microscopic analysis; format: functional, organism-based; conditions: time 5.0 day
[3] = Acute toxicity in female Wistar rat assessed as adverse side effects at 100 to 500 mg/kg, po measured after 14 days; format: organism-based; conditions: in vivo, 336 h, dose 100-500 mg/kg, time 14 day
Drosophila melanogaster [4] = assay: Reversal of ey-GAL4 driven UAS-amyloid beta induced cellular toxicity in Drosophila melanogaster Oregon R-positive model assessed as increase in cell viability in gut at 5 uM by MTT assay relative to control; format: functional
Acetylcholinesterase [5] = target: T1, Acetylcholinesterase (Homo sapiens, UniProt P22303); assay: Inhibition of human erythrocyte AChE using acetylthiocholine iodide as substrate preincubated for 30 mins followed by substrate addition and measured after 30 mins by DTNB based Ellman's method
T1 sequence (P22303 whole entry, the tested form may be a part): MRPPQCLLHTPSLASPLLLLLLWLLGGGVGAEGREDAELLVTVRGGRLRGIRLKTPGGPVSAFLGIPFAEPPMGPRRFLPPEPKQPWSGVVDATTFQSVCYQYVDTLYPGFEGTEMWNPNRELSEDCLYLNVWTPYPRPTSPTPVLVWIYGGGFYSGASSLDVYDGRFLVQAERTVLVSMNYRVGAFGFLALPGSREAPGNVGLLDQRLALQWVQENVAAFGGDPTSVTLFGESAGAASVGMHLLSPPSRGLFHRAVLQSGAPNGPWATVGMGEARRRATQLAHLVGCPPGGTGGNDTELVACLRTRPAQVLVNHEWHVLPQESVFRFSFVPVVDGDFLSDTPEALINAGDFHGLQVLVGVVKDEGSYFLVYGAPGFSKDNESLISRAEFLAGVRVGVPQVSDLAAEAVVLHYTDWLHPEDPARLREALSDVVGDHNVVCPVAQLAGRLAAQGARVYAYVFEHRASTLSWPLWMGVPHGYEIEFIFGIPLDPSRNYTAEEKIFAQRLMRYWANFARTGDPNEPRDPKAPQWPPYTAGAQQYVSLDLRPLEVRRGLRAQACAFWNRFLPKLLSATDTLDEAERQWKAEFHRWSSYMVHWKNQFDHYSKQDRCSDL

Rattus norvegicus [6] = assay: (§2) Reversal of amyloid beta (1 to 42 residues) induced cognitive impairment in female Wistar rat assessed as reduction in amyloid beta level in brain hippocampus at 20 mg/kg, po pretreated with amyloid beta for 7 days followed by compound administration and measured after 5 days by immunohistochemistry analysis; format: functional, organism-based; conditions: time 5.0 day
[7] = target: Amyloid-beta precursor protein (Homo sapiens) (UniProt P05067); assay: Inhibition of human AChE induced amyloid beta (1 to 42 residues) (unknown origin) aggregation assessed as reduction in NFI measured after 48 hrs by thioflavin T based fluorescence analysis; conditions: dose 5-20 µM
Sequence of Amyloid-beta precursor protein (Homo sapiens) (P05067 whole entry, the tested form may be a part): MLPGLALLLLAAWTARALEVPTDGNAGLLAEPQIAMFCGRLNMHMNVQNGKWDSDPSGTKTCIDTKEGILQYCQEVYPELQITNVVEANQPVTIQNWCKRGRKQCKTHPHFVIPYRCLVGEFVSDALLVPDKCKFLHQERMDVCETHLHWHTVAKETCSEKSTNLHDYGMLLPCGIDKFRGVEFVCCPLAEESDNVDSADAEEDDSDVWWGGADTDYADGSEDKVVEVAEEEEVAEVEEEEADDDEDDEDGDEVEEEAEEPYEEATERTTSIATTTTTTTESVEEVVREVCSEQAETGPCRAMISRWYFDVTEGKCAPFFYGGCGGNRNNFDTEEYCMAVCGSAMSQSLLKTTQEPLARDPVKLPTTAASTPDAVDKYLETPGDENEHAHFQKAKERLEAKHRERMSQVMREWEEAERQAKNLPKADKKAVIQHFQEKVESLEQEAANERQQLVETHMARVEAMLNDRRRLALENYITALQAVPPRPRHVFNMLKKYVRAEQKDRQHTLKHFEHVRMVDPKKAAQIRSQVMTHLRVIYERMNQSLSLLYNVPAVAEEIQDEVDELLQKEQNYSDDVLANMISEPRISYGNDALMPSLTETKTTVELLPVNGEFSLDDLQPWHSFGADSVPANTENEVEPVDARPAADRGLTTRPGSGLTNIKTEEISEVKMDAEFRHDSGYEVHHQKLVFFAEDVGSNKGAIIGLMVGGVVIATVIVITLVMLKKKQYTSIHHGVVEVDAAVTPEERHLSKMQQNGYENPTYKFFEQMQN

[8] = Acute toxicity in female Wistar rat assessed as histopathological changes in brain at 100 to 500 mg/kg, po measured after 14 days; format: organism-based; conditions: in vivo, 336 h, dose 100-500 mg/kg, time 14 day
Drosophila melanogaster [9] = assay: Reversal of ey-GAL4 driven UAS-amyloid beta induced cellular toxicity in Drosophila melanogaster Oregon R-positive model assessed as reduction in severe ommatidial death eye phenotype at 10 uM by trinocular stereo-zoom microscope relative to control; format: functional; parameters: scale not given: the % may be the effect or the level left
Rattus norvegicus [10] = assay: as §2, with “in BACE-1” for “in amyloid beta”; format: functional, organism-based; conditions: time 5.0 day
[11] = Toxicity in Drosophila melanogaster Oregon R-positive assessed as reduction in eclosed flies at embryonic stage at 200 uM measured until 15 days relative to control; parameters: scale not given: the % may be the effect or the level left; conditions: 360 h, time 15 day
[12] = target: Amyloid-beta precursor protein (Homo sapiens) (UniProt P05067); assay: Inhibition of amyloid beta (1 to 42 residues) (unknown origin) aggregation assessed as reduction in massive oligomers measured after 3 days by AFM analysis; conditions: time 3.0 day
Rattus norvegicus [13] = assay: Reversal of amyloid beta (1 to 42 residues) induced cognitive impairment in female Wistar rat assessed as increase in total platform crossing at 20 mg/kg, po pretreated with amyloid beta for 7 days followed by compound administration and measured after 5 days by Morris water maze test; format: functional, organism-based; conditions: time 5.0 day
[14] = Acute toxicity in female Wistar rat assessed as signs of toxicity at 100 to 500 mg/kg, po measured after 14 days; format: organism-based; conditions: in vivo, 336 h, dose 100-500 mg/kg, time 14 day
[15] = Neurotoxicity against retinoic acid/BDNF differentiated human SH-SY5Y cells assessed as reduction in cell viability at 80 uM incubated for 24 hrs by MTT assay relative to control; format: toxicity, cell-based
Rattus norvegicus [16] = assay: as §1, with “density” for “arrangements”; format: functional, organism-based; conditions: time 5.0 day
Drosophila melanogaster [17] = assay: Reversal of ey-GAL4 driven UAS-amyloid beta induced cellular toxicity in Drosophila melanogaster Oregon R-positive model assessed as increase in rescued eye phenotype at 5 uM by trinocular stereo-zoom microscope relative to control; format: functional
Drosophila melanogaster [18] = assay: Reversal of ey-GAL4 driven UAS-amyloid beta induced cellular toxicity in Drosophila melanogaster Oregon R-positive model assessed as increase in cell viability in gut at 1 uM by MTT assay relative to control; format: functional
[19] = Acute toxicity in female Wistar rat assessed as effect on renal functional parameters at 100 to 500 mg/kg, po measured after 14 days; format: organism-based; conditions: in vivo, 336 h, dose 100-500 mg/kg, time 14 day
Drosophila melanogaster [20] = assay: Reversal of ey-GAL4 driven UAS-amyloid beta induced cellular toxicity in Drosophila melanogaster Oregon R-positive model assessed as increase in cell viability in gut at 50 uM by MTT assay relative to control; format: functional
[21] = Drug concentration in male Wistar rat brain homogenate at 10 mg/kg, po measured after 4 days; format: ADME, organism-based; conditions: time 4 day, read-out: Ct
[22] = target: Amyloid-beta precursor protein (Homo sapiens) (UniProt P05067); assay: Inhibition of amyloid beta (1 to 42 residues) (unknown origin) aggregation assessed as disaggregation by measuring reduction in fluorescence intensity measured after 3 days by confocal microscopic analysis; conditions: time 3.0 day
[23] = AUC (0 to t) in male Wistar rat at 20 mg/kg, po measured upto 32 hrs by high-performance liquid chromatography; format: ADME, organism-based; conditions: in vivo
[24] = Acute toxicity in female Wistar rat assessed as histopathological changes in liver at 100 to 500 mg/kg, po measured after 14 days; format: organism-based; conditions: in vivo, 336 h, dose 100-500 mg/kg, time 14 day
Drosophila melanogaster [25] = assay: Reversal of ey-GAL4 driven UAS-amyloid beta induced cellular toxicity in Drosophila melanogaster Oregon R-positive model assessed as reduction in severe ommatidial death eye phenotype at 15 uM by trinocular stereo-zoom microscope relative to control; format: functional; parameters: scale not given: the % may be the effect or the level left
[26] = Toxicity in Drosophila melanogaster Oregon R-positive assessed as reduction in cell viability upto 50 uM measured until 15 days; conditions: 360 h, time 15 day
Rattus norvegicus [27] = assay: Reversal of amyloid beta (1 to 42 residues) induced cognitive impairment in female Wistar rat assessed as reduction in escape latency time at 20 mg/kg, po pretreated with amyloid beta for 7 days followed by compound administration and measured after 5 days by Morris water maze test; format: functional, organism-based; conditions: time 5.0 day
Acetylcholinesterase [28] = target: T1, Acetylcholinesterase; assay: Inhibition of human AChE using acetylthiocholine iodide as substrate assessed as reduction in enzyme activity at 10 to 100 times IC50 incubated for 30 mins
[29] = Acute toxicity in female Wistar rat assessed as effect on hepatic functional parameters at 100 to 500 mg/kg, po measured after 14 days; format: organism-based; conditions: in vivo, 336 h, dose 100-500 mg/kg, time 14 day
Acetylcholinesterase [30] = target: T1, Acetylcholinesterase; assay: Non-competitive inhibition of human AChE using acetylthiocholine iodide as substrate assessed as inhibition constant at 0.03 to 0.3 uM by Dixon plot analysis
[31] = Tmax in male Wistar rat at 20 mg/kg, po measured upto 32 hrs by high-performance liquid chromatography; format: ADME, organism-based; conditions: in vivo
Drosophila melanogaster [32] = assay: Reversal of ey-GAL4 driven UAS-amyloid beta induced cellular toxicity in Drosophila melanogaster Oregon R-positive model assessed as reduction in mild ommatidial death eye phenotype at 15 uM by trinocular stereo-zoom microscope relative to control; format: functional; parameters: scale not given: the % may be the effect or the level left
Acetylcholinesterase [33] = target: T1, Acetylcholinesterase; assay: Inhibition of human AChE using acetylthiocholine iodide as substrate assessed as reversal of enzyme activity by measuring remaining activity at 10 to 100 times IC50 incubated for 30 mins followed by dilution to 0.1 to 1 times IC50 with substrate
Drosophila melanogaster [34] = assay: Reversal of ey-GAL4 driven UAS-amyloid beta induced cellular toxicity in Drosophila melanogaster Oregon R-positive model assessed as increase in cell viability in gut at 10 uM by MTT assay relative to control; format: functional

For COc1cc2ncnc(N3CCN(Cc4ccccc4)CC3)c2cc1OC, the Activity [1] was “Non-Toxic”, the IC50 (Cholinesterase) was greater than 10000 nM and the Activity (Rattus norvegicus [2]) was “Active”. For the same molecule, the Activity [3] was “Non-Toxic”, the Activity (Drosophila melanogaster [4]) was 82% and the IC50 (Acetylcholinesterase [5]) was 283 nM. For the same molecule, the Activity (Rattus norvegicus [6]) was “Active”, the inhibition [7] was “Dose-Dependent Effect” and the Activity [8] was “Non-Toxic”. For the same molecule, the Activity (Drosophila melanogaster [9]) was 23.3%, the Activity (Rattus norvegicus [10]) was “Active” and the Activity [11] was 100%. The inhibition [12] was “Active”, the Activity (Rattus norvegicus [13]) was “Active” and the Activity [14] was “Non-Toxic”. For the same molecule, the Activity [15] was 26%, the Activity (Rattus norvegicus [16]) was “Active” and the Activity (Drosophila melanogaster [17]) was 27%. For the same molecule, the Activity (Drosophila melanogaster [18]) was 69%, the Activity [19] was “Non-Toxic” and the Activity (Drosophila melanogaster [20]) was 75%. The concentration at 96 h [21] was 633 ng/mL, the Activity [22] was “Active” and the AUC(0-t) at 32 h [23] was 6990 ng·h/mL. For the same molecule, the Activity [24] was “Non-Toxic”, the Activity (Drosophila melanogaster [25]) was 20% and the Activity [26] was “Non-Toxic”. The Activity (Rattus norvegicus [27]) was “Active”, the inhibition (Acetylcholinesterase [28]) was “Active” and the Activity [29] was “Non-Toxic”. For the same molecule, the Ki (Acetylcholinesterase [30]) was 246 nM, the Tmax [31] was 3 h and the Activity (Drosophila melanogaster [32]) was 30%. For the same molecule, the Activity (Acetylcholinesterase [33]) was greater than 60% and the Activity (Drosophila melanogaster [34]) was 62%.
